The results in this text go back to ChEMBL document CHEMBL5223146, “Synthesis of esters and amides of 2-aryl-1-hydroxy-4-methyl-1H-imidazole-5-carboxylic acids and study of their antiviral activity against orthopoxviruses” (Bioorg Med Chem Lett, 2023).

The test system of one data set is Ectromelia virus. In words: Antiviral activity against ectromelia virus K-1 infected in Vero cells measured after 4 days by colorimetric assay. The data set is classed as functional, organism-based. Particulars: K-1, Vero, 96 h; call rule not given here.
Data set [1] can be described thus: (§1) Cytotoxicity against MDCK cells measured after 4 days by colorimetric assay. Type of data set: toxicity, cell-based, Canis lupus familiaris. Conditions: dog, MDCK cells; time 4 day.
A short description of data set [2]: Selectivity index, ratio of CC50 for African green monkey Vero cells to IC50 for Vaccinia virus Copenhagen infected in Vero cells. Type of data set: toxicity, cell-based. Conditions: read-out: Ratio CC50/IC50.
The next data set concerns Vaccinia virus. Description: Antiviral activity against Vaccinia virus Copenhagen infected in Vero cells measured after 4 days by colorimetric assay. Type of data set: functional, organism-based, Orthopoxvirus vaccinia.
The subject of another data set is Cowpox virus. In words: Antiviral activity against Cowpox virus Grishak infected in Vero cells measured after 4 days by colorimetric assay. Conditions: 96 h. The data set is classed as functional, organism-based.
A short description of data set [3]: Selectivity index, ratio of CC50 for African green monkey Vero cells to IC50 for Cowpox virus Grishak infected in Vero cells. The data set is classed as toxicity, cell-based. Conditions: read-out: Ratio CC50/IC50.
A further data set has as its system Influenza A virus. In words: Antiviral activity against Influenza A virus (A/California/07/2009(H1N1)) infected in MDCK cells measured after 4 days by colorimetric assay. Type of data set: functional, organism-based.
The nature of data set [4]: Selectivity index, ratio of CC50 for African green monkey Vero cells to IC50 for ectromelia virus K-1 infected in Vero cells. Conditions: read-out: Ratio CC50/IC50. Type of data set: toxicity, cell-based.
The nature of data set [5]: (§2) Cytotoxicity against African green monkey Vero cells measured after 4 days by colorimetric assay. The data set is classed as toxicity, cell-based. Conditions: chlorocebus sabaeus, Vero cells; time 4 day.
Data set [6] can be described thus: Selectivity index, ratio of CC50 for MDCK cells to IC50 for Influenza A virus (A/California/07/2009(H1N1)) infected in MDCK cells. Type of data set: toxicity, cell-based. Particulars: dog, read-out: Ratio CC50/IC50.
A further data set relates to Vero. Described as §2. The data set is classed as toxicity, cell-based. Particulars: chlorocebus sabaeus, vero, 96 h; time 4 day.
The next data set has as its system MDCK. The description is as §1. The data set is classed as toxicity, cell-based, Canis lupus familiaris. Conditions: dog, mdck, 96 h; time 4 day.
[7] abbreviates: Orthopoxvirus vaccinia, Copenhagen, Vero, 96 h, read-out: IC50.
Where [8] appears, read: Influenza A virus, A/California/07/2009(H1N1), MDCK, 96 h, read-out: IC50.

As to `CCCCNC(=O)c1c(O)nc(-c2ccc([N+](=O)[O-])cc2)n1O`, the IC50 with Ectromelia virus is 8.9 µM; with Vaccinia virus (setting [7]) it was 3.02 µM; with Cowpox virus, 12.3 µM; in the data set on Influenza A virus (mdck), “Not Active”. Besides, the CC50 at 96 h is 27.2 µM in data set [1] and 201 µM in data set [5]. Also, the selectivity ratio is 66 in [2], 16 in [3] and 23 in data set [4].
For the compound `CCOC(=O)c1c(O)nc(-c2ccccc2)n1O`, the CC50 at 96 h in data set [1] was over 406 µM; in [5], 172 µM. In addition, the IC50 entry in the data set with Vaccinia virus (vero) was “Not Active”; with Influenza A virus (setting [8]) it was 213 µM. In [6], the selectivity ratio turned out to be 1.9.
For the compound `CCCCNC(=O)c1c(O)nc(-c2ccccc2[N+](=O)[O-])n1O`, the CC50 at 96 h in data set [1] and in data set [5] was over 314 µM throughout. Further, the concentration for half-maximal inhibition (IC50) result in the data set on Vaccinia virus (vero) and in the data set with Influenza A virus (mdck) was “Not Active” in each case.
For the compound `O=C(NC1CC1)c1c(O)nc(-c2cccc([N+](=O)[O-])c2)n1O`, the values for the CC50 at 96 h in [1] and in [5] were over 331 µM and 261 µM, respectively. Moreover, the IC50 result in the data set on Vaccinia virus (vero) and with Influenza A virus (mdck) was “Not Active” in each case.
Turning to `O=C(NNC(=O)C1C2C=CC(C3CC23)C1C(=O)O)c1ccc(C(F)(F)F)cc1` (centres undefined), the IC50 with Ectromelia virus amounted to 0.0076 µM; with Vaccinia virus (setting [7]) it was 0.0076 µM; in the data set on Cowpox virus, 0.0203 µM. Also, the figures for the selectivity ratio in data set [2], in data set [3] and in data set [4] were 157, 58.8 and 157, respectively. Besides, in the data set with Vero, the CC50 came out at 1190 µM.
Regarding `O=C(NC1CC1)c1c(O)nc(-c2ccccc2)n1O`, the 50% cytotoxic concentration (CC50) at 96 h in data set [1] and in [5] was over 389 µM each time. The IC50 result in the data set with Vaccinia virus (vero) and with Influenza A virus (mdck) was “Not Active” in each case.
`CCCCNC(=O)c1c(O)nc(-c2ccccc2)n1O`: the CC50 at 96 h is over 366 µM in data set [1] and 436 µM in [5]. For the same compound, the selectivity ratio in data set [2] was 6. The IC50 is 73.4 µM in the data set on Vaccinia virus (setting [7]) and “Not Active” in the data set on Influenza A virus (mdck).
On to `CCOC(=O)c1c(O)nc(-c2cccc([N+](=O)[O-])c2)n1O`, for which the values for the CC50 at 96 h in data set [1] and in data set [5] were over 344 µM and 375 µM, respectively. Further, the IC50 entry was “Not Active” in the data set on Vaccinia virus (vero) and 118 µM in the data set on Influenza A virus (setting [8]). The selectivity ratio in data set [6] turned out to be 2.9.
Consider `CCOC(=O)c1c(O)nc(-c2ccc([N+](=O)[O-])cc2)n1O`, for which the IC50 was found to be 1.07 µM in the data set on Ectromelia virus, 0.45 µM in the data set with Vaccinia virus (setting [7]), 3.23 µM in the data set with Cowpox virus and 188 µM in the data set with Influenza A virus (setting [8]). Also, the cytotoxic concentration (CC50) at 96 h in data set [1] is over 344 µM; in [5] it was 45.7 µM. Besides, the selectivity ratio in [2] was 102; in data set [6], 1.8; in [3], 14; in [4], 43.
Consider `CCCCNC(=O)c1c(O)nc(-c2cccc([N+](=O)[O-])c2)n1O`, for which the CC50 at 96 h was over 314 µM in data set [1] and 164 µM in data set [5]. The selectivity ratio in data set [2] was found to be 9. Moreover, the IC50 with Vaccinia virus (setting [7]) was 17.6 µM; in the data set on Influenza A virus (mdck), “Not Active”.
Turning to `O=C(NC1CC1)c1c(O)nc(-c2ccccc2[N+](=O)[O-])n1O`, the CC50 at 96 h in [1] and in data set [5] was over 331 µM in each case. Besides, the IC50 result in the data set on Vaccinia virus (vero) and in the data set on Influenza A virus (mdck) was “Not Active” in each case.
On to `CCOC(=O)c1c(O)nc(-c2ccc(C(F)(F)F)cc2)n1O`, for which the IC50 is 6.75 µM in the data set with Ectromelia virus, 0.35 µM in the data set with Vaccinia virus (setting [7]), 10 µM with Cowpox virus and “Not Active” with Influenza A virus (mdck). Also, the CC50 at 96 h in data set [1] was over 318 µM; in data set [5], 322 µM. Besides, the selectivity ratio in [2] was found to be 919; in data set [3], 32; in data set [4], 46.
On to `CCCCNC(=O)c1c(O)nc(-c2ccc(C(F)(F)F)cc2)n1O`, for which the midpoint of cytotoxicity with MDCK, the CC50, lay at 12.9 µM. For the same compound, the selectivity ratio in [2] worked out at 8. Further, the IC50 is 3.4 µM with Vaccinia virus (setting [7]) and “Not Active” in the data set on Influenza A virus (mdck). In data set [5], this compound showed a CC50 at 96 h of 26 µM.
Turning to `O=C(NC1CC1)c1c(O)nc(-c2ccc(C(F)(F)F)cc2)n1O`, the CC50 at 96 h in data set [1] is over 308 µM; in data set [5] it was 202 µM. For the same compound, in data set [2], the selectivity ratio came out at 10. The results for the IC50 in the data set with Vaccinia virus (setting [7]) and in the data set with Influenza A virus (mdck) were 20.6 µM and “Not Active”, respectively.
In the case of `O=C(NC1CC1)c1c(O)nc(-c2ccc([N+](=O)[O-])cc2)n1O`, the IC50 was 14.7 µM in the data set on Ectromelia virus, 10.7 µM with Vaccinia virus (setting [7]), 22.1 µM with Cowpox virus and “Not Active” in the data set on Influenza A virus (mdck). The 50% cytotoxic concentration (CC50) at 96 h in [1] was over 331 µM; in data set [5], 357 µM. For the same compound, the results for the selectivity ratio in data set [2], in data set [3] and in [4] were 33, 16 and 24, respectively.
In the case of `CCOC(=O)c1c(O)nc(-c2ccccc2O)n1O`, the 50% inhibitory concentration (IC50) in the data set on Ectromelia virus is 23.6 µM; with Vaccinia virus (setting [7]), 15.5 µM; with Cowpox virus, 31.4 µM; with Influenza A virus (mdck), “Not Active”. Besides, the CC50 at 96 h is over 382 µM in data set [1] and 1830 µM in [5]. The selectivity ratio is 117 in data set [2], 58 in [3] and 77 in data set [4].
For `O=C(NC1CC1)c1c(O)nc(-c2ccccc2O)n1O`, the 50% cytotoxic concentration (CC50) was over 366 µM in the data set with MDCK and 299 µM in the data set with Vero. Besides, the 50% inhibitory concentration (IC50) entry in the data set on Vaccinia virus (vero) and in the data set with Influenza A virus (mdck) was “Not Active” in each case.
With `CCCCNC(=O)c1c(O)nc(-c2ccccc2O)n1O`, the half-maximal cytotoxic concentration (CC50) at 96 h in [1] came to 42.9 µM; in data set [5], 197 µM. For the same compound, the selectivity ratio in data set [2] was determined as 13. Moreover, the values for the IC50 in the data set with Vaccinia virus (setting [7]) and in the data set with Influenza A virus (mdck) were 15 µM and “Not Active”, respectively.
With `CCOC(=O)c1c(O)nc(-c2ccccc2[N+](=O)[O-])n1O`, the CC50 at 96 h was over 344 µM in data set [1] and 343 µM in [5]. Besides, the IC50 entry with Vaccinia virus (vero) and with Influenza A virus (mdck) was “Not Active” in each case.
Turning to `Nc1ccn(C[C@@H](CO)OCP(=O)(O)O)c(=O)n1` [CIDOFOVIR], the IC50 in the data set on Ectromelia virus was found to be 34 µM; in the data set on Vaccinia virus (setting [7]) it was 32.5 µM; in the data set on Cowpox virus it was 46.4 µM. Moreover, the selectivity ratio in [2] amounted to 30; in data set [3] it was 21; in data set [4], 29. The compound also registered a 50% cytotoxic concentration (CC50) in the data set with Vero of 989 µM.

One may read the IC50 as the point on the concentration scale where inhibition reaches its midpoint. By CC50 is commonly meant the concentration at which the toxic effect on the cells reaches its halfway point.
